Measurements as given in US5545667A, “Methods for treating neoplasms with betaines” (The Clorox Company, priority 1994, dated 1996).
pIC50: −log10 of the molar value. Where a name gives a salt, the structure may show the parent alone. Read-outs that look alike come from different tables or passages of the source.

What was measured:
liver = details: rats fed ethionine; cited from earlier work
PAM 212 cells = assay: Cell growth inhibition assay (surfactants, 3-4 days, Coulter counter), PAM 212; format: cell-based, mouse
Method: (§1) Established cell lines are the system of choice for the prescreening of unknown compounds for antineoplastic activity. The tumor cell line screen works on the following principle. Cancer cells, if provided with enough nutrients, will grow unchecked in vitro, allowing researchers to grow many types of cancer cells outside the body. To perform an assay, standard amounts of the various cancer cells are placed in individual wells of a microtiter plate, and incubated with the potential antineoplastic compound of interest, for a sufficient period of time to allow for at least a 6-fold control growth, generally 1 to 5 days depending on cell origin. At the end of the incubation period, the cell lines are stained and assayed by a variety of means including, for example, proteins stains or a colorimeter for normal growth, growth inhibition or cytotoxicity. These assays measure a compound's ability to inhibit cell growth and a positive response of the compounds in these assays would be indicative of the therapeutic potential of these compounds. See, for example, the protocols and data presented in Laskin et al., (1979) Cancer Res 39:383-390 for 5-fluorouracil in mouse and human cells in culture.
(§2) A total of ten cell lines were used to evaluate the growth inhibitory potency of the various surfactants. In these studies, human, rat, mouse and bovine cells were used. A spectrum of different tumor cell types were used including those derived from keratinocytes (PAM 212), leukemias (HL-60, U-937 and K-562), an epitheloid carcinoma (HeLa) and melanoma (B-16). The B16 melanoma was used since this is a common cell type used to evaluate antimetastatic activity of test compounds. The effect of the surfactants on three fibroblast cell lines (C3H 10T1/2, NIH 3T3 and R6) were also evaluated for comparison to the tumor cell lines. The activity of the surfactants was also evaluated using pulmonary aortic endothelial cells for effectiveness as antiangiogenic agents.
(§3) PAM 212 cells are a mouse keratinocyte-derived tumor cell line. U-937 cells are a human histiocytic tumor cell line. HeLa cells are an epitheloid tumor cell line. Three murine fibroblast cells lines tested included the mouse fibroblast cell line, C3H 10T1/2, the rat fibroblast cell line R6, and the NIH 3T3 mouse fibroblast cell line. The human leukemia cell line HL-60 and the mouse melanoma B-16 cell were also tested. K-562 cells were from the American Type Culture Collection. All cells were grown in Dulbecco's modified Eagle's medium in a 37° C. incubator in an atmosphere of 5% CO2.
(§4) For growth inhibition assays, cells were seeded at low density (2.5×10^4 cells in 0.5 ml of culture medium) into 24-well tissue culture plates (Falcon Labware, Lincoln Park, N.J.). After 24 hours at 37° C., increasing concentrations (1 to 100 uM) of the surfactants were added to the cells in the culture plate. Control cultures were incubated in the absence of any surfactant. The cells were then incubated for 3-4 days to allow for growth. Cells from individual wells in the culture plate were then removed and duplicate samples taken for counting using a Coulter counter. To remove adherent cells the plates were treated with 0.25% trypsin/0.2% EDTA (GIBCO, Grand Island, N.Y.).

U-937 cells = assay: Cell growth inhibition assay, U-937; format: cell-based; details: Homo sapiens
Method: as §1, §2, §3, §4

HeLa cells = assay: Cell growth inhibition assay, HeLa; format: cell-based; details: read-out: IC50 (uM conc. inhibiting growth of the cells by 50%)
Method: as §1, §2, §3, §4

C3H 10T1/2 cells = assay: Cell growth inhibition assay, C3H 10T1/2; format: cell-based, mouse
Method: as §1, §2, §3, §4

HL-60 cells = assay: Cell growth inhibition assay, HL-60; format: cell-based, human
Method: as §1, §2, §3, §4

NIH 3T3 cells = assay: Cell growth inhibition assay, NIH 3T3; format: cell-based, mouse
Method: as §1, §2, §3, §4

K-562 cells = assay: Cell growth inhibition assay, K-562; format: cell-based; details: Homo sapiens
Method: as §1, §2, §3, §4

B-16 cells = assay: Cell growth inhibition assay, B-16 melanoma; format: cell-based, mouse
Method: as §1, §2, §3, §4

R6 cells = assay: Cell growth inhibition assay, R6; format: cell-based, rat; details: Fibroblast, read-out: IC50 (uM conc. inhibiting growth of the cells by 50%)
Method: as §1, §2, §3, §4

CPA-5 cells = assay: Cell growth inhibition assay, CPA-5 endothelial cells; format: cell-based, bovine; details: Bos taurus, read-out: IC50 (uM conc. inhibiting growth of the cells by 50%)
Text: as §2, §3, §4
The compounds were tested as inhibitors of growth in the bovine aortic endothelial cell line CPA-5 as taught in Example 2 in order to evaluate the possibility that they may be anti-angiogenesis agents. A hallmark of angiogenesis is the outgrowth of endothelial cells which are required in the formation of new blood vessels. This process is a critical factor in the vascularization of tumors. Inhibition of neovascularization limits the growth of tumors and would be an effective means of treating cancer. FIG. 3 illustrates that three of the compounds, 8-3S, 12-5B and 12-1B, had no activity against the CPA-5 cell line in the concentration range tested (IC50 =>100 uM), while only relatively high concentrations of 12-3S (IC50 =70 uM) were effective in inhibiting the growth of CPA-5 cells. As indicated above, with several exceptions, these compounds were also not very effective in inhibiting the growth of each of the other cell types.

[1] = Critical micelle concentration (cmc); format: physicochemical
Text: "Critical micelle concentration" or "cmc" refers to the point at which micelle formation begins.

ten cell lines = assay: Cell growth inhibition assays, panel of cell lines; format: cell-based, human, rat, mouse and bovine
Text: as §2, §3, §4

battery of cell lines = details: 1988 report; cited from earlier work
[2] = U-937, read-out: IC50 (uM conc. inhibiting growth of the cells by 50%)
[3] = Mus musculus, C3H 10T1/2, read-out: IC50 (uM conc. inhibiting growth of the cells by 50%)
[4] = Homo sapiens, HL-60, read-out: IC50 (uM conc. inhibiting growth of the cells by 50%)
[5] = Mus musculus, NIH3T3, read-out: IC50 (uM conc. inhibiting growth of the cells by 50%)
[6] = K562, read-out: IC50 (uM conc. inhibiting growth of the cells by 50%)
[7] = Mus musculus, B16, read-out: IC50 (uM conc. inhibiting growth of the cells by 50%)
[8] = PAM212, PAM 212 mouse keratinocyte-derived tumor cells, 3-4 days, read-out: IC50 (uM conc. inhibiting growth of the cells by 50%)
[9] = U-937, U-937 human histiocytic tumor cells, 3-4 days, read-out: IC50 (uM conc. inhibiting growth of the cells by 50%)
[10] = Homo sapiens, HeLa, HeLa cells, 3-4 days
[11] = C3H 10T1/2 mouse fibroblasts, 3-4 days, read-out: IC50 (uM conc. inhibiting growth of the cells by 50%)
[12] = HL-60 human leukemia cells, 3-4 days, read-out: IC50 (uM conc. inhibiting growth of the cells by 50%)
[13] = NIH3T3, NIH 3T3 mouse fibroblasts, 3-4 days, read-out: IC50 (uM conc. inhibiting growth of the cells by 50%)
[14] = K562, K-562 leukemia cells, 3-4 days, read-out: IC50 (uM conc. inhibiting growth of the cells by 50%)
[15] = B16, B-16 mouse melanoma cells, 3-4 days, read-out: IC50 (uM conc. inhibiting growth of the cells by 50%)
[16] = CPA-5 bovine aortic endothelial cells, 3-4 days

Row | cmc [1] | IC50 (U-937 cells; [9]) | IC50 (HeLa cells; [10]) | IC50 (HL-60 cells; [12]) | IC50 (K-562 cells; [14]) | IC50 (B-16 cells; [15]) | SMILES | IC50 (PAM 212 cells; [8]) | IC50 (C3H 10T1/2 cells; [11]) | IC50 (NIH 3T3 cells; [13]) | IC50 (R6 cells; R6 rat fibroblasts, 3-4 days) | IC50 (CPA-5 cells; [16]) | also measured
1 | – | – | – | – | – | – | C[N+](C)(C)CC(=O)O [betaine] | – | – | – | – | – | prevention of chronic morphological changes in the liver, including cancer formation (liver): relatively effective in preventing chronic morphological changes in the liver, including cancer formation
2 | 200,000 uM | > 100 µM | > 100 µM | > 100 µM | > 100 µM | > 100 µM | CCCCCCCC[N+](C)(C)CCCS(=O)(=O)[O-] [8-3S, N-octyl-N, N-dimethyl-3-ammonio-1-propanesulfonate] | > 100 µM | > 100 µM | > 100 µM | 78 µM | > 100 µM | pIC50 (ten cell lines; all / all other cell lines tested, read-out: IC50 over the cell lines tested (range or bound)): < 4.00
3 | 28 µM | 6 µM | 2.2 µM | 1.6 µM | 15 µM | 54 µM | CCCCCCCCCCCCCCCC[N+](C)(C)CCCS(=O)(=O)[O-] [16-3S, N-hexadecyl-N,N-dimethyl-3-ammonio-1-propanesulfonate] | 7.5 µM | 3.3 µM | 40 µM | 14 µM | 17 µM | –
4 | 2,200 uM | > 100 µM | 68 µM | 9.3 µM | > 100 µM | > 100 µM | CCCCCCCCCCCC[N+](C)(C)CCCS(=O)(=O)[O-] [12-3S, N-dodecyl-N,N-dimethyl-3-ammonio-1-propanesulfonate] | 3 µM | 6.5 µM | > 100 µM | 45 µM | 70 µM | IC50 (HeLa cells; HeLa cells, 3-4 days): 58 µM; inhibition and toxicity at the concentrations tested (battery of cell lines): noninhibitory and nontoxic
5 | 5,100 uM | > 100 µM | 75 µM | 11 µM | > 100 µM | > 100 µM | CCCCCCCCCCCC[N+](C)(C)CCCCCC(=O)[O-] [12-5B, N-(5-carboxypentyl)-N,N-dimethyl-1-dodecanaminium hydroxide inner salt] | 60 µM | > 100 µM | > 100 µM | 78 µM | > 100 µM | –

Row | SMILES | cmc [1] | IC50 (U-937 cells; [9]) | IC50 (HeLa cells; [10]) | IC50 (HL-60 cells; [12]) | IC50 (K-562 cells; [14]) | IC50 (B-16 cells; [15]) | IC50 (PAM 212 cells; [8]) | IC50 (C3H 10T1/2 cells; [11]) | IC50 (NIH 3T3 cells; [13]) | IC50 (R6 cells; R6 rat fibroblasts, 3-4 days) | IC50 (CPA-5 cells; [16]) | also measured
6 | CCCCCCCCCCCCCCCC[N+](C)(C)CC(=O)[O-] [16-1B, N-(carboxymethyl)-N,N-dimethyl-1-hexadecanaminium hydroxide inner salt] | 14 µM | – | – | – | – | – | – | – | – | – | – | IC50 (PAM 212 cells; Mus musculus, PAM212, read-out: IC50 (uM conc. inhibiting growth of the cells by 50%)): 50 µM; IC50 (U-937 cells; [2]): 23 µM; IC50 (HeLa cells; Homo sapiens, HeLa): 16 µM; IC50 (C3H 10T1/2 cells; [3]): 54 µM; IC50 (HL-60 cells; [4]): 8 µM; IC50 (NIH 3T3 cells; [5]): 60 µM; IC50 (K-562 cells; [6]): 32 µM; IC50 (B-16 cells; [7]): 52 µM; IC50 (R6 cells; Rattus norvegicus): 45 µM; IC50 (CPA-5 cells): 30 µM; activity against all of the cell lines tested (ten cell lines; growth inhibition): effective against all of the cell lines
7 | CCCCCCCCCCCC[N+](C)(C)CC(=O)[O-] [12-1B, N-(carboxymethyl)-N,N-dimethyl-1-dodecanaminium hydroxide inner salt] | 2,400 uM | – | – | – | – | – | – | – | – | – | – | IC50 (U-937 cells; [2]): > 100 µM; IC50 (HeLa cells; Homo sapiens, HeLa): 39 µM; IC50 (C3H 10T1/2 cells; [3]): > 100 µM; IC50 (HL-60 cells; [4]): 37 µM; IC50 (NIH 3T3 cells; [5]): > 100 µM; IC50 (K-562 cells; [6]): 19 µM; IC50 (B-16 cells; [7]): 90 µM; IC50 (R6 cells; Rattus norvegicus): > 100 µM; IC50 (CPA-5 cells): > 100 µM; inhibition and toxicity at the concentrations tested (battery of cell lines): inhibitory and toxic
